Source: article PMC13295013 (Nature chemical biology, 2026)

Key:
Assay type in all cases: cell-based
[1] = tested on: pErk levels in MDA-MB-453 cells (single encorafenib-occupied Raf dimers); assay: Encorafenib and LXH-254 cotreatment, pErk, MDA-MB-453 cells; settings: encorafenib 1 h, then LXH-254 3 h
[2] = tested on: pErk levels in Mia Paca-2 cells (single encorafenib-occupied Raf dimers); assay: Encorafenib and LXH-254 cotreatment, pErk, Mia Paca-2 cells; settings: encorafenib 1 h, then LXH-254 3 h
[3] = tested on: pErk levels in MDA-MB-453 cells; assay: LXH-254 titration, pErk western blot, MDA-MB-453 cells; settings: 4 h LXH-254 treatment
[4] = tested on: pErk levels in CIAR-293 cells; assay: Inhibitor titrations in CIAR-293 cells (pErk); settings: A115 or DMSO 1 h, then LXH-254 3 h
[5] = tested on: pErk levels in HCT-116 cells (single encorafenib-occupied Raf dimers); assay: Encorafenib and LXH-254 cotreatment, pErk, HCT-116 cells; settings: encorafenib 1 h, then LXH-254 3 h
[6] = tested on: pErk levels in HCT-116 (G13D KRas/WT Raf) cells; assay: LXH-254 titration, pErk western blot, HCT-116 cells
[7] = tested on: pErk levels in Mia PaCa-2 cells; assay: LXH-254 titration, pErk western blot, Mia PaCa-2 cells; settings: at 10–50 μM LXH-254
[8] = molecular target: ARaf:CRaf heterodimers (Homo sapiens, UniProt P04049+P10398); assay: Co-immunoprecipitation of ARaf with CRaf in MiaPaCa-2 cells treated with LXH-254; settings: Mia PaCa-2 cells
[9] = tested on: pErk levels in Mia PaCa-2 cells; assay: Raf inhibitor and Mek inhibitor cotreatments, pErk, Mia PaCa-2 cells
[10] = tested on: pErk levels in MDA-MB-231 cells; assay: LXH-254 titration, pErk western blot, MDA-MB-231 cells; settings: 4 h LXH-254 treatment
[11] = tested on: pMek levels in mutant KRas-expressing lines; assay: pMek levels in mutant KRas-expressing cell lines treated with Mek inhibitors; settings: multiple mutant KRas-expressing lines, 4 h
[12] = molecular target: high-affinity Raf:Mek interactions (Homo sapiens, UniProt Q02750); assay: Co-immunoprecipitation of Raf with Mek from Mia PaCa-2 cells treated with partial inhibitory doses of Mek inhibitors; settings: 4 h
[13] = tested on: pErk levels in MDA-MB-453 cells; assay: Bliss synergy analysis of cobimetinib/LXH-254 pErk titration data, MDA-MB-453 cells; settings: combination with LXH-254, MDA-MB-453 cells, p < 0.05
[14] = tested on: pMek levels in CIAR-293 cells; assay: pMek levels in CIAR-293 cells treated with A115 or DMSO; settings: A115 1 h
[15] = Mia Paca-2 cells, partial (~85%) inhibitory dose 1 h, then LXH-254 3 h

high-affinity Raf:Mek interactions, sequence (Q02750 whole entry): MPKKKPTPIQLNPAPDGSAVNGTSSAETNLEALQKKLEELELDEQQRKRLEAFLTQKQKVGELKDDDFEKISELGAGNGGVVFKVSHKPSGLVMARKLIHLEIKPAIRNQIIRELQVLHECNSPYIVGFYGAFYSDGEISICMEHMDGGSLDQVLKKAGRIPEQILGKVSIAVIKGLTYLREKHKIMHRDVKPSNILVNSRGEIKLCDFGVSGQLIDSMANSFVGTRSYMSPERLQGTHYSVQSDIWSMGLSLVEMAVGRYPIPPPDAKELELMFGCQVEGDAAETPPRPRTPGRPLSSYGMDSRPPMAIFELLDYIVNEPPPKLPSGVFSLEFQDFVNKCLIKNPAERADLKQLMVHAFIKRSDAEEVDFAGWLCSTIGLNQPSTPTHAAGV
ARaf:CRaf heterodimers, sequence (P10398 whole entry): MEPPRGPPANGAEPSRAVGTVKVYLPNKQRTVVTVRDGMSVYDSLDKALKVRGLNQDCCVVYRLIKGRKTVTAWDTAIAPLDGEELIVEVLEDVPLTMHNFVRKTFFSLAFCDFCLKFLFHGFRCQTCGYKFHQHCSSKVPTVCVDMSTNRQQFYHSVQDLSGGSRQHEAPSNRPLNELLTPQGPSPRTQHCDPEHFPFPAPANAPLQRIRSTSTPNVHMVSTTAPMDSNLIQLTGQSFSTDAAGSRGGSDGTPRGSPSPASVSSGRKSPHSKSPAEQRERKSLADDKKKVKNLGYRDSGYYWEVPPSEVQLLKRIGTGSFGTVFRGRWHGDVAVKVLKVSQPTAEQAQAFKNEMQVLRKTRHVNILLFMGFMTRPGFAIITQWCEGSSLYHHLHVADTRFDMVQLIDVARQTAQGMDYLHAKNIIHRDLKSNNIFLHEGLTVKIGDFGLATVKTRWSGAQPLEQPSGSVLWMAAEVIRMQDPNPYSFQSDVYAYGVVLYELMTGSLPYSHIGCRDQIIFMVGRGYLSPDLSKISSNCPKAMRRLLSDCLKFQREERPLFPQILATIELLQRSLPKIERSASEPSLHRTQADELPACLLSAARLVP
ARaf:CRaf heterodimers, sequence (P04049 whole entry): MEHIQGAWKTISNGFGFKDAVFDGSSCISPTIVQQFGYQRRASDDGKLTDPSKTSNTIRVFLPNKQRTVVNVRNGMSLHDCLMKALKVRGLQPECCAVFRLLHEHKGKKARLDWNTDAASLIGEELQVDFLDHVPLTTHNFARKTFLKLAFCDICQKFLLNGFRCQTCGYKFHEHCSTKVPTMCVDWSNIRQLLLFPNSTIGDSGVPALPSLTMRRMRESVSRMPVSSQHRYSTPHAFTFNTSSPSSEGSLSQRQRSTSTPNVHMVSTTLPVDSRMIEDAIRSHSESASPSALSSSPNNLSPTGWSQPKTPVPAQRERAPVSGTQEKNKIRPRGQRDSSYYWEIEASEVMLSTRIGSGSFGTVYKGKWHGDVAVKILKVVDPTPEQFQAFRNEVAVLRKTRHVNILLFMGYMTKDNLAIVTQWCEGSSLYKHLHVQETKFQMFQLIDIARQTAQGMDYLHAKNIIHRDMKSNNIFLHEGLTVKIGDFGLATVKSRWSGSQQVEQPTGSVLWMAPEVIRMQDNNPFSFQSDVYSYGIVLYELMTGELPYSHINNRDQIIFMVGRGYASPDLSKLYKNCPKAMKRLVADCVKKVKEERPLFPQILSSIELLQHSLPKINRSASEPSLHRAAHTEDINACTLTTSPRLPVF

In the case of `Cc1ccc(NC(=O)c2ccnc(C(F)(F)F)c2)cc1-c1cc(OCCO)nc(N2CCOCC2)c1` [LXH-254], the “decrease in LXH-254 pErk IC50 after encorafenib pretreatment and washout” value (“decrease in LXH-254 pErk IC50” for short) [1] is reported as ~ 20 fold, the “decrease in LXH-254 pErk IC50” value [2] is reported as ~ 30 fold and the “pErk IC50” value [3] is reported as “micromolar”. For the same compound, the “change of pErk IC50 in A115-treated versus DMSO-treated CIAR-293 cells” value [4] was “four-fold lower”, the “decrease in LXH-254 pErk IC50” value [5] was 2-3 fold and the “pErk IC50” value ([6]; 4 h LXH-254 treatment) was “double-digit nanomolar”. The “treatment time at which maximal and stable inhibition of downstream signaling (pErk) was achieved” value ([6]; time course, 32 nM LXH-254, n=1) was 4 h, the “decrease of pErk levels” value [7] was greater than 80% and the “LXH-254 concentrations at which ARaf was recruited into heterodimers with CRaf” value [8] was 10 to 50 µM. For the same compound, the IC50 ([9]; Homo sapiens, MIA PaCa-2, read-out: LXH-254 pErk IC50, DMSO pretreatment) was 590 nM and the “pErk IC50” value [10] was “double-digit nanomolar”.

With `CNS(=O)(=O)Nc1nccc(Cc2c(C)c3ccc(Oc4ncccn4)cc3oc2=O)c1F` [CH5126766] the “effect of Mek inhibitor pretreatment on LXH-254 pErk IC50 / inhibitory activity” value [9, 15] was “potently antagonizes”, the “effect on pMek (Mek activation) relative to DMSO” value [11] was “either reduced or minimally affected” and the “effect on high-affinity Raf:Mek interactions” value [12] was “promoted”.

For `O=C(c1ccc(F)c(F)c1Nc1ccc(I)cc1F)N1CC(O)([C@@H]2CCCCN2)C1` [cobimetinib], the “increase in LXH-254's potency (pErk IC50) after Mek inhibitor pretreatment” value [9, 15] was ~ 4 fold, the “effect on pMek (Mek activation) relative to DMSO” value [11] was “greatly enhanced” and the “average Bliss score” value [13] was 8.72. The “effect on high-affinity Raf:Mek interactions” value [12] was “disrupted”.

For `CN(C)CC#Cc1ccc(OCCCc2sc(N3CCc4cccc(C(=O)Nc5nc6ccccc6s5)c4C3)nc2C(=O)O)c(F)c1` [A115], the “pMek levels upon A115 treatment versus DMSO” value [14] was “four-fold higher”.
